Measured values as given in patent US20230263822A1, “MODULATION OF FACTOR 11 EXPRESSION” (Ionis Pharmaceuticals, Inc., priority 2008, published 2023).
Strand notation (5' to 3'): a small letter for the sugar, then the base; units joined by * are phosphorothioate-linked, units joined directly phosphodiester-linked; [ ] holds rarer units or linkages, { } end groups; capitals alone tell only the bases. e = 2'-O-(2-methoxyethyl) (MOE); [5mC] = 5-methylcytosine; d = 2'-deoxy (DNA)

Key:
human Factor 11 mRNA [1] = experiment: Antisense inhibition of human Factor 11 in HepG2 cells by microwalk gapmers, lipofectin, 75 nM (Example 3); type: cell-based; details: HepG2 cells, lipofectin, gapmers targeted to nucleobases 1275 to 1318 of SEQ ID NO: 1
Outline: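 HepG2 cells (10,000/well) were transfected via lipofectin with 75 nM 20-mer MOE gapmers (phosphorothioate, 5-methyl-C) for about 24 h. Factor 11 mRNA was measured by qRT-PCR, normalized to RIBOGREEN total RNA, and given as percent inhibition versus untreated cells.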

[2] = Tolerability in Sprague-Dawley rats: kidney function, urine protein/creatinine (Example 35); details: for Urine protein/creatinine ratio: Sprague Dawley rats; for BUN / Creatinine: Sprague-Dawley rats, plasma
human Factor 11 mRNA [3] = experiment: Dose-dependent inhibition of human Factor 11 in HepG2 cells, electroporation 0.7-20 uM (Example 4); type: cell-based; details: for percent inhibition of Factor 11 at 0.7 μM / percent inhibition of Factor 11 at 2.2 μM / percent inhibition of Factor 11 at 6.7 μM / percent inhibition of Factor 11 at 20 μM: relative to untreated control cells
Outline: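 HepG2 cells electroporated with antisense gapmers at 0.7, 2.2, 6.7 and 20 μM, treated ~16 h. Factor 11 mRNA quantified by qRT-PCR (primer probe set RTS 2966), normalised to RIBOGREEN total RNA; expressed as percent inhibition versus untreated control cells.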

human Factor 11 mRNA [4] = experiment: Dose-dependent inhibition of human Factor 11 in HepG2 cells, lipofectin 9.375-75 nM (Example 4); type: cell-based; details: for percent inhibition of Factor 11 at 9.375 nM / percent inhibition of Factor 11 at 18.75 nM / percent inhibition of Factor 11 at 37.5 nM / percent inhibition of Factor 11 at 75 nM: relative to untreated control cells
Outline: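 HepG2 cells transfected via lipofectin with antisense oligonucleotide at 9.375, 18.75, 37.5 or 75 nM for about 16 h. Factor 11 mRNA quantified by real-time RT-PCR (primer probe set RTS 2966) and normalized to total RNA (RIBOGREEN). Results expressed as percent inhibition versus untreated cells.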

human Factor 11 mRNA [5] = experiment: Antisense inhibition of human Factor 11 in HepG2 cells, electroporation, 8,000 nM (Example 30); type: cell-based; details: electroporation, 8,000 nM antisense oligonucleotide
Outline: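 HepG2 cells electroporated with 8,000 nM 5-10-5, 5-8-5 or 6-8-6 MOE gapmers (phosphorothioate, 5-methylcytidine), ~24 h. Factor 11 mRNA quantified by qRT-PCR, normalised to RIBOGREEN total RNA. Reported as percent inhibition versus untreated cells.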

[6] = After treatment, 50 mg/kg s.c. twice per week for 6 weeks
[7] = Before antisense oligonucleotide treatment
[8] = 50 mg/kg s.c. twice per week for 6 weeks

Substance | % inhibition (human Factor 11 mRNA [1]) | Urine protein/creatinine ratio [2, 6] | Urine protein/creatinine ratio [2, 7] | IC50 (human Factor 11 mRNA [3]) | percent inhibition of Factor 11 at 0.7 μM (human Factor 11 mRNA [3]) | percent inhibition of Factor 11 at 2.2 μM (human Factor 11 mRNA [3]) | percent inhibition of Factor 11 at 6.7 μM (human Factor 11 mRNA [3]) | percent inhibition of Factor 11 at 20 μM (human Factor 11 mRNA [3]) | IC50 (human Factor 11 mRNA [4]) | percent inhibition of Factor 11 at 9.375 nM (human Factor 11 mRNA [4]) | percent inhibition of Factor 11 at 18.75 nM (human Factor 11 mRNA [4]) | percent inhibition of Factor 11 at 37.5 nM (human Factor 11 mRNA [4]) | percent inhibition of Factor 11 at 75 nM (human Factor 11 mRNA [4]) | BUN [2, 8] | Creatinine [2, 8] | other results
416925 (antisense GGTGCACAGTTTCTGGCAGG; 3-14-3 gapmer chemistry, further chemistry not given here) [compound 416925] | 98% | 4.3 | 1.0 | 3900 nM | 0% | 40% | 76% | 80% | 30 nM | 13% | 38% | 59% | 75% | – | – | –
416999 (antisense GCACAGTTTCTGGCAGGCCT; 2-13-5 gapmer chemistry, further chemistry not given here) [compound 416999] | 92% | 9.1 | 1.3 | 2800 nM | 20% | 42% | 77% | 88% | 30 nM | 24% | 37% | 55% | 73% | – | – | –
417002 (antisense GGTGCACAGTTTCTGGCAGG; 2-13-5 gapmer chemistry, further chemistry not given here) [compound 417002] | 92% | 2.4 | 1.0 | 2200 nM | 32% | 38% | 82% | 91% | 19 nM | 35% | 52% | 67% | 70% | – | – | –
445522 (antisense eG*e[5mC]*eA*e[5mC]*eA*dG*dT*dT*dT*d[5mC]*dT*dG*dG*e[5mC]*eA*eG*eG*e[5mC]) [compound 445522] | – | – | – | – | – | – | – | – | – | – | – | – | – | – | – | Percent inhibition of human Factor 11 mRNA levels (human Factor 11 mRNA [5]): 91%
445531 (antisense eG*eG*e[5mC]*eA*eT*dT*dG*dG*dT*dG*d[5mC]*dA*d[5mC]*eA*eG*eT*eT*eT) [compound 445531] | – | – | – | – | – | – | – | – | – | – | – | – | – | – | – | Percent inhibition of human Factor 11 mRNA levels (human Factor 11 mRNA [5]): 90%
ISIS 416838: MOE gapmer, nucleobases 1018 to 1042 of SEQ ID NO: 1 (Table 6) (antisense GCAACCGGGATGATGAGTGC; MOE gapmer, wing and gap sizes not given here) | – | – | – | – | – | – | – | – | – | – | – | – | – | 4 mg/dL | 5 mg/dL | –
ISIS 416850: MOE gapmer, nucleobases 1275 to 1318 of SEQ ID NO: 1 (Table 8) (antisense TGCACAGTTTCTGGCAGGCC; MOE gapmer, wing and gap sizes not given here) | – | – | – | – | – | – | – | – | – | – | – | – | – | 5 mg/dL | 7 mg/dL | –
ISIS 416858: MOE gapmer, nucleobases 1275 to 1318 of SEQ ID NO: 1 (Table 8) (antisense ACGGCATTGGTGCACAGTTT; MOE gapmer, wing and gap sizes not given here) | – | – | – | – | – | – | – | – | – | – | – | – | – | 8 mg/dL | 4 mg/dL | –
ISIS 416864: MOE gapmer, nucleobases 1275 to 1318 of SEQ ID NO: 1 (Table 8) (antisense GGCAGCGGACGGCATTGGTG; MOE gapmer, wing and gap sizes not given here) | – | – | – | – | – | – | – | – | – | – | – | – | – | 5 mg/dL | 6 mg/dL | –
ISIS 417002: MOE gapmer, nucleobases 1275 to 1318 of SEQ ID NO: 1 (Table 8) (antisense GGTGCACAGTTTCTGGCAGG; MOE gapmer, wing and gap sizes not given here) | – | – | – | – | – | – | – | – | – | – | – | – | – | 11 mg/dL | 1 mg/dL | –
